Test results as given in patent publication US12215140B2, “Method of stabilizing protein contained in specimen and solution for stabilizing protein contained in specimen” (EIKEN KAGAKU KABUSHIKI KAISHA, priority 2018, dated 2025).

Test system: hemoglobin-haptoglobin complex
Assay: Stability of hemoglobin (as hemoglobin-haptoglobin complex) in samples preserved at 37° C. in preservation solution containing 1 unit/L haptoglobin, Hb measured by latex agglutination method (Examples 1 to 7)
Set-up: species or system human
Conditions: for Hb concentration / Recovery ratio with respect to Hb concentration after 0 days: 37° C.
Procedure, shortened: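 Hemoglobin (~300 µg/L) in 0.5% fecal suspension, or without feces, held at 37 °C for 0–21 days in 40 mmol/L HEPES pH 6.8, 0.1% BSA, 0.1% NaN3, 1 unit/L haptoglobin, with 0–100 mmol/L phenylboronic acid ± sugars. Hb quantified by latex agglutination with anti-human Hb rabbit polyclonal; recovery (%) relative to day 0.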

[1] = Feces 1, sugar 50 mmol/L + phenylboronic acid 15 mmol/L, 0 days
[2] = Feces 1, sugar 50 mmol/L + phenylboronic acid 15 mmol/L, 7 days
[3] = Feces 1, sugar 50 mmol/L + phenylboronic acid 15 mmol/L, 14 days
[4] = Feces 1, sugar 50 mmol/L + phenylboronic acid 15 mmol/L, 21 days
[5] = Feces 1, sugar 100 mmol/L + phenylboronic acid 15 mmol/L, 0 days
[6] = Feces 1, sugar 100 mmol/L + phenylboronic acid 15 mmol/L, 7 days
[7] = Feces 1, sugar 100 mmol/L + phenylboronic acid 15 mmol/L, 14 days
[8] = Feces 1, sugar 100 mmol/L + phenylboronic acid 15 mmol/L, 21 days
[9] = Feces 1, sugar 100 mmol/L, no phenylboronic acid, 0 days
[10] = Feces 1, sugar 100 mmol/L, no phenylboronic acid, 7 days
[11] = Feces 1, sugar 100 mmol/L, no phenylboronic acid, 14 days
[12] = Feces 1, sugar 100 mmol/L, no phenylboronic acid, 21 days
[13] = Feces 2, sugar 50 mmol/L + phenylboronic acid 15 mmol/L, 0 days
[14] = Feces 2, sugar 50 mmol/L + phenylboronic acid 15 mmol/L, 7 days
[15] = Feces 2, sugar 50 mmol/L + phenylboronic acid 15 mmol/L, 14 days
[16] = Feces 2, sugar 50 mmol/L + phenylboronic acid 15 mmol/L, 21 days
[17] = Feces 2, sugar 100 mmol/L + phenylboronic acid 15 mmol/L, 0 days
[18] = Feces 2, sugar 100 mmol/L + phenylboronic acid 15 mmol/L, 7 days
[19] = Feces 2, sugar 100 mmol/L + phenylboronic acid 15 mmol/L, 14 days
[20] = Feces 2, sugar 100 mmol/L + phenylboronic acid 15 mmol/L, 21 days
[21] = Feces 2, sugar 100 mmol/L, no phenylboronic acid, 0 days
[22] = Feces 2, sugar 100 mmol/L, no phenylboronic acid, 7 days
[23] = Feces 2, sugar 100 mmol/L, no phenylboronic acid, 14 days
[24] = Feces 2, sugar 100 mmol/L, no phenylboronic acid, 21 days
[25] = Feces 3, sugar 50 mmol/L + phenylboronic acid 15 mmol/L, 0 days
[26] = Feces 3, sugar 50 mmol/L + phenylboronic acid 15 mmol/L, 7 days
[27] = Feces 3, sugar 50 mmol/L + phenylboronic acid 15 mmol/L, 14 days
[28] = Feces 3, sugar 50 mmol/L + phenylboronic acid 15 mmol/L, 21 days
[29] = Feces 3, sugar 100 mmol/L + phenylboronic acid 15 mmol/L, 0 days
[30] = Feces 3, sugar 100 mmol/L + phenylboronic acid 15 mmol/L, 7 days
[31] = Feces 3, sugar 100 mmol/L + phenylboronic acid 15 mmol/L, 14 days
[32] = Feces 3, sugar 100 mmol/L + phenylboronic acid 15 mmol/L, 21 days
[33] = Feces 3, sugar 100 mmol/L, no phenylboronic acid, 0 days
[34] = Feces 3, sugar 100 mmol/L, no phenylboronic acid, 7 days
[35] = Feces 3, sugar 100 mmol/L, no phenylboronic acid, 14 days
[36] = Feces 3, sugar 100 mmol/L, no phenylboronic acid, 21 days
[37] = No feces, sugar 50 mmol/L + phenylboronic acid 15 mmol/L, 0 days
[38] = No feces, sugar 50 mmol/L + phenylboronic acid 15 mmol/L, 7 days
[39] = No feces, sugar 50 mmol/L + phenylboronic acid 15 mmol/L, 14 days
[40] = No feces, sugar 50 mmol/L + phenylboronic acid 15 mmol/L, 21 days
[41] = No feces, sugar 100 mmol/L + phenylboronic acid 15 mmol/L, 0 days
[42] = No feces, sugar 100 mmol/L + phenylboronic acid 15 mmol/L, 7 days
[43] = No feces, sugar 100 mmol/L + phenylboronic acid 15 mmol/L, 14 days
[44] = No feces, sugar 100 mmol/L + phenylboronic acid 15 mmol/L, 21 days
[45] = No feces, sugar 100 mmol/L, no phenylboronic acid, 0 days
[46] = No feces, sugar 100 mmol/L, no phenylboronic acid, 7 days
[47] = No feces, sugar 100 mmol/L, no phenylboronic acid, 14 days
[48] = No feces, sugar 100 mmol/L, no phenylboronic acid, 21 days

## OC[C@H]1O[C@H](O[C@H]2O[C@H](CO)[C@@H](O)[C@H](O)[C@H]2O)[C@H](O)[C@@H](O)[C@@H]1O [Trehalose, trehalose]
[1]
  Hb concentration: 299 µg/L
  Recovery ratio with respect to Hb concentration after 0 days: 100%
[2]
  Hb concentration: 261 µg/L
  Recovery ratio with respect to Hb concentration after 0 days: 87%
[3]
  Hb concentration: 247 µg/L
  Recovery ratio with respect to Hb concentration after 0 days: 83%
[4]
  Hb concentration: 241 µg/L
  Recovery ratio with respect to Hb concentration after 0 days: 81%
[5]
  Hb concentration: 291 µg/L
  Recovery ratio with respect to Hb concentration after 0 days: 100%
[6]
  Hb concentration: 249 µg/L
  Recovery ratio with respect to Hb concentration after 0 days: 86%
[7]
  Hb concentration: 238 µg/L
  Recovery ratio with respect to Hb concentration after 0 days: 82%
[8]
  Hb concentration: 230 µg/L
  Recovery ratio with respect to Hb concentration after 0 days: 79%
[9]
  Hb concentration: 266 µg/L
  Recovery ratio with respect to Hb concentration after 0 days: 100%
[10]
  Hb concentration: 121 µg/L
  Recovery ratio with respect to Hb concentration after 0 days: 45%
[11]
  Hb concentration: 80 µg/L
  Recovery ratio with respect to Hb concentration after 0 days: 30%
[12]
  Hb concentration: 44 µg/L
  Recovery ratio with respect to Hb concentration after 0 days: 17%
[13]
  Hb concentration: 284 µg/L
  Recovery ratio with respect to Hb concentration after 0 days: 100%
[14]
  Hb concentration: 257 µg/L
  Recovery ratio with respect to Hb concentration after 0 days: 90%
[15]
  Hb concentration: 223 µg/L
  Recovery ratio with respect to Hb concentration after 0 days: 79%
[16]
  Hb concentration: 201 µg/L
  Recovery ratio with respect to Hb concentration after 0 days: 71%
[17]
  Hb concentration: 269 µg/L
  Recovery ratio with respect to Hb concentration after 0 days: 100%
[18]
  Hb concentration: 251 µg/L
  Recovery ratio with respect to Hb concentration after 0 days: 93%
[19]
  Hb concentration: 227 µg/L
  Recovery ratio with respect to Hb concentration after 0 days: 84%
[20]
  Hb concentration: 206 µg/L
  Recovery ratio with respect to Hb concentration after 0 days: 77%
[21]
  Hb concentration: 264 µg/L
  Recovery ratio with respect to Hb concentration after 0 days: 100%
[22]
  Hb concentration: 106 µg/L
  Recovery ratio with respect to Hb concentration after 0 days: 40%
[23]
  Hb concentration: 61 µg/L
  Recovery ratio with respect to Hb concentration after 0 days: 23%
[24]
  Hb concentration: 41 µg/L
  Recovery ratio with respect to Hb concentration after 0 days: 16%
[25]
  Hb concentration: 282 µg/L
  Recovery ratio with respect to Hb concentration after 0 days: 100%
[26]
  Hb concentration: 221 µg/L
  Recovery ratio with respect to Hb concentration after 0 days: 78%
[27]
  Hb concentration: 197 µg/L
  Recovery ratio with respect to Hb concentration after 0 days: 70%
[28]
  Hb concentration: 178 µg/L
  Recovery ratio with respect to Hb concentration after 0 days: 63%
[29]
  Hb concentration: 281 µg/L
  Recovery ratio with respect to Hb concentration after 0 days: 100%
[30]
  Hb concentration: 213 µg/L
  Recovery ratio with respect to Hb concentration after 0 days: 76%
[31]
  Hb concentration: 192 µg/L
  Recovery ratio with respect to Hb concentration after 0 days: 68%
[32]
  Hb concentration: 179 µg/L
  Recovery ratio with respect to Hb concentration after 0 days: 64%
[33]
  Hb concentration: 267 µg/L
  Recovery ratio with respect to Hb concentration after 0 days: 100%
[34]
  Hb concentration: 91 µg/L
  Recovery ratio with respect to Hb concentration after 0 days: 34%
[35]
  Hb concentration: 56 µg/L
  Recovery ratio with respect to Hb concentration after 0 days: 21%
[36]
  Hb concentration: 47 µg/L
  Recovery ratio with respect to Hb concentration after 0 days: 18%
[37]
  Hb concentration: 268 µg/L
  Recovery ratio with respect to Hb concentration after 0 days: 100%
[38]
  Hb concentration: 253 µg/L
  Recovery ratio with respect to Hb concentration after 0 days: 94%
[39]
  Hb concentration: 255 µg/L
  Recovery ratio with respect to Hb concentration after 0 days: 95%
[40]
  Hb concentration: 257 µg/L
  Recovery ratio with respect to Hb concentration after 0 days: 96%
[41]
  Hb concentration: 269 µg/L
  Recovery ratio with respect to Hb concentration after 0 days: 100%
[42]
  Hb concentration: 248 µg/L
  Recovery ratio with respect to Hb concentration after 0 days: 92%
[43]
  Hb concentration: 251 µg/L
  Recovery ratio with respect to Hb concentration after 0 days: 93%
[44]
  Hb concentration: 251 µg/L
  Recovery ratio with respect to Hb concentration after 0 days: 93%
[45]
  Hb concentration: 243 µg/L
  Recovery ratio with respect to Hb concentration after 0 days: 100%
[46]
  Hb concentration: 229 µg/L
  Recovery ratio with respect to Hb concentration after 0 days: 94%
[47]
  Hb concentration: 225 µg/L
  Recovery ratio with respect to Hb concentration after 0 days: 93%
[48]
  Hb concentration: 222 µg/L
  Recovery ratio with respect to Hb concentration after 0 days: 91%
Sugar 100 mmol/L, preservation solutions containing no phenylboronic acid
  recovery ratio of hemoglobin in the samples containing fecal specimens: does not improve
Sugar further added to phenylboronic acid 15 mmol/L, Feces 3
  recovery ratios: not improved
